Test results: patent US20020137929A1, “1 - (3-heterocyclylphenyl) isothiourea, -isourea, -guanidine and -amidine herbicidal agents” (Intellectual Property Department, BASF Aktiengesellschaft, priority 1998, published 2002)

Assays:
[1] = test system: TRZAWR (Wheat, Winter, cv Riband); test: Postemergence herbicidal evaluation; format: in vivo, Triticum aestivum; conditions: postemergence
In short: (§1)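 Rate range approx. 0.0156–0.500 kg/ha. Foliar application at 40 psi to ~2-week seedlings; surfactant 0.5% TWEEN 20 in 50/50 acetone/water. Evaluation 4–5 wk post-treatment by 0–9 visual injury score, means of replicate tests.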

[2] = test system: CYPIR (Rice Flatsedge); test: Preemergence weed control under flooded paddy conditions; format: in vivo, Cyperus iria; conditions: rated 3-4 weeks after treatment
In short: (§2)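 Flooded-pot preemergence screen with silt loam and seeds in the upper 0.5 cm. Dose about 0.0313 to 0.500 kg/ha, delivered into flood water; visual 0-9 score after 3 to 4 weeks.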

[3] = test system: ECHORC (Watergrass (Calif.)); test: Postemergence weed control under flooded paddy conditions; format: in vivo, Echinochloa oryzoides; conditions: postemergence weeds, rated 3 to 4 weeks after treatment
Source text: Results of herbicide evaluation are expressed on a rating scale (0-9). The scale is based upon a visual observation of plant stand, vigor, malformation, size, chlorosis and overall plant appearance as compared with a control.
Plastic containers containing weeds which are 3 to 5 cm tall and rice seedlings at the 1.5 to 2.5 leaf stage are flooded with water. The water is maintained at 1.5 to 3 cm above the soil surface for the duration of the experiment. Test compounds are applied as aqueous/ acetone mixtures 50/50 v/v directly into the flood water to provide the equivalent of about 0.0313 to 0.500 kg/ha of active ingredient. The treated containers are placed on greenhouse benches and cared for in accordance with conventional greenhouse procedures. Three to four weeks after treatment, the test is terminated and each container is examined and herbicidal effect rated according to the rating system provided in Example 37. The compounds evaluated are reported by compound number given in Example 37.

[4] = test system: SETVI (Foxtail, Green); test: Postemergence herbicidal evaluation; format: in vivo, Setaria viridis; conditions: postemergence
In short: as §1

[5] = test system: IPOHE (Morningglory, Ivyleaf); test: Preemergence herbicidal evaluation; format: in vivo, Ipomoea hederacea; conditions: preemergence, rated 4-5 weeks after treatment, 0-9 scale
In short: (§3)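 Rating at 4–5 wk post-spray on a 0–9 visual scale vs control. Application: aqueous acetone, ~0.0156–0.500 kg/ha, to soil surface after seeding, preemergence.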

[6] = test system: ECHORC (Watergrass (Calif.)); test: Preemergence weed control under flooded paddy conditions; format: in vivo, Echinochloa oryzoides; conditions: rated 3-4 weeks after treatment
In short: as §2

[7] = test system: ZEAMX (Corn, Field); test: Preemergence herbicidal evaluation; format: in vivo, Zea mays; conditions: preemergence, rated 4-5 weeks after treatment, 0-9 scale
In short: as §3

[8] = test system: MOOVA (Monochoria); test: Preemergence weed control under flooded paddy conditions; format: in vivo, Monochoria vaginalis; conditions: rated 3-4 weeks after treatment
In short: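 Values are visual 0-9 scores against a control for a preemergence application into paddy flood water at about 0.0313 to 0.500 kg/ha. Greenhouse duration was three to four weeks.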

[9] = test system: ECHCG (Barnyardgrass); test: Preemergence herbicidal evaluation; format: in vivo, Echinochloa crus-galli; conditions: preemergence, rated 4-5 weeks after treatment, 0-9 scale
In short: as §3

[10] = test system: SETVI (Foxtail, Green); test: Preemergence herbicidal evaluation; format: in vivo, Setaria viridis; conditions: preemergence, rated 4-5 weeks after treatment, 0-9 scale
In short: as §3

[11] = test system: GALAP (Galium); test: Postemergence herbicidal evaluation; format: in vivo, Galium aparine; conditions: postemergence
In short: as §1

[12] = test system: IPOHE (Morningglory, Ivyleaf); test: Postemergence herbicidal evaluation; format: in vivo, Ipomoea hederacea; conditions: postemergence
In short: as §1

[13] = test system: ABUTH (Velvetleaf); test: Preemergence herbicidal evaluation; format: in vivo, Abutilon theophrasti; conditions: preemergence, rated 4-5 weeks after treatment, 0-9 scale
In short: as §3

CCOC(=O)CN1C(=O)C(CC(=O)NO)S/C1=N/c1cc(-n2c(=O)cc(C(F)(F)F)n(C)c2=O)c(F)cc1Cl (centres unmarked) [Compound 98, Ethyl 2-{{2-chloro-5-[3,6-dihydro-3-methyl-2,6-dioxo-4-(trifluoromethyl)-1(2H)-pyrimidinyl]-4-fluorophenyl}imino}-5-[(hydroxycarbamoyl)methyl]-4-oxo-3-thiazolidineacetate]
6.0: ZEAMX rating ([7]; 0.5000 kg/ha) | ABUTH rating ([13]; 0.1250 kg/ha) | ABUTH rating ([13]; 0.2500 kg/ha)
4.0: IPOHE rating ([5]; 0.2500 kg/ha) | ZEAMX rating ([7]; 0.2500 kg/ha) | SETVI rating ([10]; 0.1250 kg/ha)
2.0: SETVI herbicidal rating ([4]; rate 0.1250 kg/ha) | ECHCG rating ([9]; 0.5000 kg/ha) | ABUTH rating ([13]; 0.0625 kg/ha)
1.0: Herbicidal rating ECHORC ([3]; Rate 0.1250 kg/ha) | SETVI herbicidal rating ([4]; rate 0.0156 kg/ha) | SETVI herbicidal rating ([4]; rate 0.0625 kg/ha) | IPOHE rating ([5]; 0.0625 kg/ha) | ECHORC herbicidal effect rating ([6]; 0.1250 kg/ha) | ECHCG rating ([9]; 0.1250 kg/ha) | ECHCG rating ([9]; 0.2500 kg/ha) | SETVI rating ([10]; 0.0313 kg/ha) | GALAP herbicidal rating ([11]; rate 0.1250 kg/ha)
7.0: SETVI rating ([10]; 0.5000 kg/ha)
9.0: CYPIR herbicidal effect rating ([2]; 0.0313 kg/ha) | CYPIR herbicidal effect rating ([2]; 0.0625 kg/ha) | CYPIR herbicidal effect rating ([2]; 0.1250 kg/ha) | CYPIR herbicidal effect rating ([2]; 0.2500 kg/ha) | IPOHE rating ([5]; 0.5000 kg/ha) | MOOVA herbicidal effect rating ([8]; 0.0313 kg/ha) | MOOVA herbicidal effect rating ([8]; 0.0625 kg/ha) | MOOVA herbicidal effect rating ([8]; 0.1250 kg/ha) | MOOVA herbicidal effect rating ([8]; 0.2500 kg/ha) | IPOHE herbicidal rating ([12]; rate 0.0625 kg/ha) | IPOHE herbicidal rating ([12]; rate 0.1250 kg/ha) | ABUTH rating ([13]; 0.5000 kg/ha)
3.0: TRZAWR herbicidal rating ([1]; rate 0.0625 kg/ha) | TRZAWR herbicidal rating ([1]; rate 0.1250 kg/ha) | Herbicidal rating ECHORC ([3]; Rate 0.2500 kg/ha) | IPOHE rating ([5]; 0.1250 kg/ha) | ECHORC herbicidal effect rating ([6]; 0.2500 kg/ha) | SETVI rating ([10]; 0.2500 kg/ha) | IPOHE herbicidal rating ([12]; rate 0.0156 kg/ha) | IPOHE herbicidal rating ([12]; rate 0.0313 kg/ha)
0.0: Herbicidal rating ECHORC ([3]; Rate 0.0313 kg/ha) | Herbicidal rating ECHORC ([3]; Rate 0.0625 kg/ha) | SETVI herbicidal rating ([4]; rate 0.0313 kg/ha) | IPOHE rating ([5]; 0.0156 kg/ha) | IPOHE rating ([5]; 0.0313 kg/ha) | ECHORC herbicidal effect rating ([6]; 0.0313 kg/ha) | ECHORC herbicidal effect rating ([6]; 0.0625 kg/ha) | ZEAMX rating ([7]; 0.0156 kg/ha) | ZEAMX rating ([7]; 0.0313 kg/ha) | ZEAMX rating ([7]; 0.0625 kg/ha) | ZEAMX rating ([7]; 0.1250 kg/ha) | ECHCG rating ([9]; 0.0156 kg/ha) | ECHCG rating ([9]; 0.0313 kg/ha) | ECHCG rating ([9]; 0.0625 kg/ha) | SETVI rating ([10]; 0.0156 kg/ha) | SETVI rating ([10]; 0.0625 kg/ha) | GALAP herbicidal rating ([11]; rate 0.0156 kg/ha) | GALAP herbicidal rating ([11]; rate 0.0313 kg/ha) | GALAP herbicidal rating ([11]; rate 0.0625 kg/ha) | ABUTH rating ([13]; 0.0156 kg/ha) | ABUTH rating ([13]; 0.0313 kg/ha)
2.5: TRZAWR herbicidal rating ([1]; rate 0.0156 kg/ha) | TRZAWR herbicidal rating ([1]; rate 0.0313 kg/ha)
